Literature values as cited in patent US20230106731A1, “INHIBITORS OF MUTANT FAMILY TYROSINE-KINASES” (Spectrum Pharmaceuticals, Inc., priority 2017, published 2023).

Experiments:
EGFR/HER2 exon 20 mutant = EGFR/HER2 exon 20 mutant patients
[1] = test system: EGFR exon 20 driven NSCLC

Structure (SMILES)	activity in patients (EGFR/HER2 exon 20 mutant)	activity in patient derived xenograft model [1]
CS(=O)(=O)CCNCc1ccc(-c2ccc3ncnc(Nc4ccc(OCc5cccc(F)c5)c(Cl)c4)c3c2)o1 [lapatinib]	limited activity	–
CCOc1cc2ncc(C#N)c(Nc3ccc(OCc4ccccn4)c(Cl)c3)c2cc1NC(=O)/C=C/CN(C)C [neratinib]	limited activity	–
C=CC(=O)Nc1cc(Nc2nccc(-c3cn(C)c4ccccc34)n2)c(OC)cc1N(C)CCN(C)C [osimertinib]	–	minimal activity
